{
  "source": "patent US6610273B2",
  "about": "“Process for making chemically stable C-17/21 OH 20-ketosteroid aerosol products” (3M Innovative Properties Company, priority 1999, dated 2003)",
  "key": {"[1]": {"details": "cited from earlier work; for Chemical stability of solution MDI formulation (in words): solution formulations, HFC propellant, prior publications"}, "[2]": {"format": "physicochemical", "protocol": "(§1) At ambient temperature, a 3 mL ethanol solution of budesonide (0.007 M) was mixed with 0.1 g of aluminum oxide (Aldrich, neutral, activated Brockmann I, 150 mesh), which mimics aluminum oxide existing on the inner surface of aluminum containers. Each aliquot was filtered with a syringe filter and diluted with acetonitrile by 20 times for HPLC analysis to determine the recovery of budesonide with respect to the initial concentration. The recoveries of budesonide were compared with a reference, which contained the same concentration of budesonide but in ethanol solution without aluminum oxide.\nas §1, with “triamcinolone acetonide” for “budesonide”\nas §1, with “dexamethasone” for “budesonide”, “aliquote” for “aliquot”, “recoveries” for “recovery”, “inital” for “initial”"}, "[3]": {"experiment": "Solubility testing of budesonide in P134a and P227 formulations at approximately 5° C.", "format": "physicochemical"}},
  "data": [
    {"smiles": "CC(C)C(=O)OCC(=O)[C@@]12O[C@H](C3CCCCC3)O[C@@H]1C[C@H]1[C@@H]3CCC4=CC(=O)C=C[C@]4(C)[C@H]3[C@@H](O)C[C@@]12C", "note": "[ciclesonide]", "values": [
      {"measurement": "Chemical stability of solution MDI formulation (in words)", "setting": "[1]", "result": "surprisingly chemically stable"}
    ]},
    {"smiles": "CCCC1O[C@@H]2C[C@H]3[C@@H]4CCC5=CC(=O)C=C[C@]5(C)[C@H]4[C@@H](O)C[C@]3(C)[C@]2(C(=O)CO)O1", "note": "(stereo partly drawn) [budesonide]", "values": [
      {"measurement": "Degradation in the presence of aluminum oxide (in words)", "setting": "[2]", "result": "almost totally consumed"},
      {"measurement": "Budesonide Solubility, MEAN", "setting": "[3]; P134a, 5° C.", "result": 0.012, "unit": "mg/g"},
      {"measurement": "Budesonide Solubility, sample 1", "setting": "[3]; P134a, 5° C.", "result": 0.013, "unit": "mg/g"},
      {"measurement": "Budesonide Solubility, sample 2", "setting": "[3]; P134a, 5° C.", "result": 0.010, "unit": "mg/g"},
      {"measurement": "Budesonide Solubility, MEAN", "setting": "[3]; P134a/5% EtOH, 5° C.", "result": 0.465, "unit": "mg/g"},
      {"measurement": "Budesonide Solubility, sample 1", "setting": "[3]; P134a/5% EtOH, 5° C.", "result": 0.459, "unit": "mg/g"},
      {"measurement": "Budesonide Solubility, sample 2", "setting": "[3]; P134a/5% EtOH, 5° C.", "result": 0.471, "unit": "mg/g"},
      {"measurement": "Budesonide Solubility, MEAN", "setting": "[3]; P134a/10% EtOH, 5° C.", "result": 1.382, "unit": "mg/g"},
      {"measurement": "Budesonide Solubility, sample 1", "setting": "[3]; P134a/10% EtOH, 5° C.", "result": 1.370, "unit": "mg/g"},
      {"measurement": "Budesonide Solubility, sample 2", "setting": "[3]; P134a/10% EtOH, 5° C.", "result": 1.394, "unit": "mg/g"},
      {"measurement": "Budesonide Solubility, MEAN", "setting": "[3]; P134a/15% EtOH, 5° C.", "result": 2.699, "unit": "mg/g"},
      {"measurement": "Budesonide Solubility, sample 1", "setting": "[3]; P134a/15% EtOH, 5° C.", "result": 2.686, "unit": "mg/g"},
      {"measurement": "Budesonide Solubility, sample 2", "setting": "[3]; P134a/15% EtOH, 5° C.", "result": 2.711, "unit": "mg/g"},
      {"measurement": "Budesonide Solubility, MEAN", "setting": "[3]; P134a/20% EtOH, 5° C.", "result": 4.360, "unit": "mg/g"},
      {"measurement": "Budesonide Solubility, sample 1", "setting": "[3]; P134a/20% EtOH, 5° C.", "result": 4.329, "unit": "mg/g"},
      {"measurement": "Budesonide Solubility, sample 2", "setting": "[3]; P134a/20% EtOH, 5° C.", "result": 4.390, "unit": "mg/g"},
      {"measurement": "Budesonide Solubility, MEAN", "setting": "[3]; P227, 5° C.", "result": 0.016, "unit": "mg/g"},
      {"measurement": "Budesonide Solubility, sample 1", "setting": "[3]; P227, 5° C.", "result": 0.017, "unit": "mg/g"},
      {"measurement": "Budesonide Solubility, sample 2", "setting": "[3]; P227, 5° C.", "result": 0.015, "unit": "mg/g"},
      {"measurement": "Budesonide Solubility, MEAN", "setting": "[3]; P227/5% EtOH, 5° C.", "result": 0.657, "unit": "mg/g"},
      {"measurement": "Budesonide Solubility, sample 1", "setting": "[3]; P227/5% EtOH, 5° C.", "result": 0.652, "unit": "mg/g"},
      {"measurement": "Budesonide Solubility, sample 2", "setting": "[3]; P227/5% EtOH, 5° C.", "result": 0.661, "unit": "mg/g"},
      {"measurement": "Budesonide Solubility, MEAN", "setting": "[3]; P227/10% EtOH, 5° C.", "result": 1.703, "unit": "mg/g"},
      {"measurement": "Budesonide Solubility, sample 1", "setting": "[3]; P227/10% EtOH, 5° C.", "result": 1.698, "unit": "mg/g"},
      {"measurement": "Budesonide Solubility, sample 2", "setting": "[3]; P227/10% EtOH, 5° C.", "result": 1.707, "unit": "mg/g"},
      {"measurement": "Budesonide Solubility, MEAN", "setting": "[3]; P227/15% EtOH, 5° C.", "result": 2.98, "unit": "mg/g"},
      {"measurement": "Budesonide Solubility, sample 1", "setting": "[3]; P227/15% EtOH, 5° C.", "result": 2.952, "unit": "mg/g"},
      {"measurement": "Budesonide Solubility, sample 2", "setting": "[3]; P227/15% EtOH, 5° C.", "result": 3.008, "unit": "mg/g"},
      {"measurement": "Budesonide Solubility, MEAN", "setting": "[3]; P227/20% EtOH, 5° C.", "result": 4.435, "unit": "mg/g"},
      {"measurement": "Budesonide Solubility, sample 1", "setting": "[3]; P227/20% EtOH, 5° C.", "result": 4.387, "unit": "mg/g"},
      {"measurement": "Budesonide Solubility, sample 2", "setting": "[3]; P227/20% EtOH, 5° C.", "result": 4.483, "unit": "mg/g"}
    ]},
    {"smiles": "CCC(=O)OCC(=O)[C@@]1(OC(=O)CC)[C@@H](C)C[C@H]2[C@@H]3CCC4=CC(=O)C=C[C@]4(C)[C@@]3(Cl)[C@@H](O)C[C@@]21C", "note": "[beclomethasone dipropionate]", "values": [
      {"measurement": "Chemical stability of solution MDI formulation (in words)", "setting": "[1]", "result": "surprisingly chemically stable"}
    ]},
    {"smiles": "CC1(C)O[C@@H]2C[C@H]3[C@@H]4CCC5=CC(=O)C=C[C@]5(C)[C@@]4(F)[C@@H](O)C[C@]3(C)[C@]2(C(=O)CO)O1", "note": "[triamcinolone acetonide]", "values": [
      {"measurement": "Degradation in aqueous formulations (in words)", "setting": "[1]; aqueous formulations in neutral or basic solutions, WO96/40042", "result": "undergo oxidative degradation catalyzed by trace levels of metal ions"}
    ]},
    {"smiles": "CCC(=O)O[C@]1(C(=O)CO)[C@@H](C)C[C@H]2[C@@H]3CCC4=CC(=O)C=C[C@]4(C)[C@@]3(Cl)[C@@H](O)C[C@@]21C", "note": "[beclomethasone 17-monopropionate]", "values": [
      {"measurement": "Degradation rate in ethanol/Al2O3 relative to isomer 21-BMP (17-OH)", "setting": "[2]", "result": "about 100 times"}
    ]},
    {"smiles": "C[C@@H]1C[C@H]2[C@@H]3CCC4=CC(=O)C=C[C@]4(C)[C@@]3(F)[C@@H](O)C[C@]2(C)[C@@]1(O)C(=O)CO", "note": "[dexamethasone]", "values": [
      {"measurement": "Degradation in the presence of aluminum oxide (in words)", "setting": "[2]", "result": "completely degrades"}
    ]}
  ]
}
